In patent US10669268B2, “Bicyclic derivatives” (Hoffmann-La Roche Inc., priority 2012, dated 2020) one finds IC50 data, which are given here for 26 molecules.

In the test the target is ATX (human His-tagged) (Homo sapiens (Human), UniProt Q13822). As to the kind of experiment: Human ATX enzyme inhibition assay (fluorescence quenching, MR121 substrate). Format: biochemical. The following applies: 30 nM ATX, 1 μM MR121 substrate, 30° C., pH 8.0. The procedure:
Human ATX Enzyme Inhibition Assay
Assay working solutions were made as follows:
Assay buffer (50 mM Tris-HCl, 140 mM NaCl, 5 mM KCl, 1 mM CaCl2, 1 mM MgCl2, 0.01% Triton-X-100, pH 8.0;
MR121 substrate solution: MR121 substrate stock solution (800 μM MR121 substrate in DMSO), diluted to 2-5× final concentration in assay buffer.
10 μL of MR121 substrate solution was added (1 μM final concentration), mixed 30 times and then incubated for 15 minutes at 30° C.
For `O=C(CCc1cc(Cl)cc(Cl)c1)N1C[C@@H]2CN(C(=O)c3ccc4[nH]nnc4c3)C[C@@H]2C1` [Example 1.01, 1-((3aR,6aS)-5-(1H-benzo[d][1,2,3]triazole-5-carbonyl)hexahydropyrrolo[3,4-c]pyrrol-2(1H)-yl)-3-(3,5-dichlorophenyl)propan-1-one], the IC50 was 35 nM. This counts as double-digit nanomolar.

As to `O=C(CCc1cc(Cl)cc(Cl)c1)N1C[C@@H]2CN(C(=O)c3ccc4[nH]c(=O)oc4c3)C[C@@H]2C1` [Example 1.02, 6-((3aR,6aS)-5-(3-(3,5-dichlorophenyl)propanoyl)octahydropyrrolo[3,4-c]pyrrole-2-carbonyl)benzo[d]oxazol-2(3H)-one], the IC50 is 77 nM.

`O=C(OCc1cc(Cl)cc(Cl)c1)N1C[C@@H]2CN(C(=O)c3ccc4[nH]nnc4c3)C[C@@H]2C1` [Example 1.03, (3aR,6aS)-3,5-dichlorobenzyl 5-(1H-benzo[d][1,2,3]triazole-5-carbonyl)hexahydropyrrolo[3,4-c]pyrrole-2(1H)-carboxylate] gave an IC50 of 25 nM. Against the preceding molecule, the IC50 is about 3.1-fold lower. Then `O=C(OCc1cc(Cl)cc(Cl)c1)N1C[C@@H]2CN(C(=O)c3cc4c(cn3)[nH]c3ccccc34)C[C@@H]2C1` [Example 1.04, (3aR,6aS)-3,5-dichlorobenzyl 5-(9H-pyrido[3,4-b]indole-3-carbonyl)hexahydropyrrolo[3,4-c]pyrrole-2(1H)-carboxylate], with 127 nM; and `O=C(OCc1cc(Cl)cc(Cl)c1)N1C[C@@H]2CN(C(=O)c3ccc4[nH]ccc4c3)C[C@@H]2C1` [Example 1.05, (3aR,6aS)-3,5-dichlorobenzyl 5-(1H-indole-5-carbonyl)hexahydropyrrolo[3,4-c]pyrrole-2(1H)-carboxylate], with 90 nM. Under `O=C(OCc1cc(Cl)cc(Cl)c1)N1C[C@@H]2CN(C(=O)c3ccc4[nH]c5ccccc5c4c3)C[C@@H]2C1` [Example 1.06, (3aR,6aS)-3,5-dichlorobenzyl 5-(9H-carbazole-3-carbonyl)hexahydropyrrolo[3,4-c]pyrrole-2(1H)-carboxylate] stands 255 nM; under `O=C(OCc1cc(Cl)cc(Cl)c1)N1C[C@@H]2CN(C(=O)c3ccc4[nH]ncc4c3)C[C@@H]2C1` [Example 1.07, (3aR,6aS)-3,5-dichlorobenzyl 5-(1H-indazole-5-carbonyl)hexahydropyrrolo[3,4-c]pyrrole-2(1H)-carboxylate], 1030 nM. In turn, `O=C(OCc1cc(Cl)cc(Cl)c1)N1C[C@@H]2CN(C(=O)c3ccc4[nH]cnc4c3)C[C@@H]2C1` [Example 1.08, (3aR,6aS)-3,5-dichlorobenzyl 5-(1H-benzo[d]imidazole-5-carbonyl)hexahydropyrrolo[3,4-c]pyrrole-2(1H)-carboxylate] gave an IC50 of 503 nM. Under `O=C(OCc1cc(Cl)cc(Cl)c1)N1CC[C@@H]2CN(C(=O)c3ccc4[nH]nnc4c3)C[C@@H]2CC1` [Example 1.11, (3aR,8aS)-3,5-dichlorobenzyl 2-(1H-benzo[d][1,2,3]triazole-5-carbonyl)octahydropyrrolo[3,4-d]azepine-6(7H)-carboxylate] stands 4 nM. `O=C(c1ccc2[nH]nnc2c1)N1C[C@@H]2CN(S(=O)(=O)CCc3cccc(Cl)c3)C[C@@H]2C1` [Example 1.12, (1H-benzotriazol-5-yl)-{(3aS,6aR)-5-[2-(3-chloro-phenyl)-ethanesulfonyl]-hexahydro-pyrrolo[3,4-c]pyrrol-2-yl}-methanone] yielded an IC50 of 9260 nM. Then `O=C(OCc1cc(Cl)cc(Cl)c1)N1C[C@@H]2CN(C(=O)C3CCc4[nH]nnc4C3)C[C@@H]2C1` (stereo partly drawn) [Example 1.13, (3aR,6aS)-3,5-dichlorobenzyl 5-(4,5,6,7-tetrahydro-1H-benzo[d][1,2,3]triazole-5-carbonyl)hexahydropyrrolo[3,4-c]pyrrole-2(1H)-carboxylate], with 226 nM. Turning to `CC(C)(Cc1cccc(Cl)c1)C(=O)N1CC[C@@H]2CN(C(=O)c3ccc4[nH]nnc4c3)C[C@@H]2CC1` [Example 1.14, 1-((3aR,8aS)-2-(1H-benzo[d][1,2,3]triazole-5-carbonyl)octahydropyrrolo[3,4-d]azepin-6(7H)-yl)-3-(3-chlorophenyl)-2,2-dimethylpropan-1-one], the IC50 was determined as 810 nM. Then `O=C(/C=C/c1ccc(OC(F)(F)F)c(F)c1)N1CC[C@@H]2CN(C(=O)c3ccc4[nH]nnc4c3)C[C@@H]2CC1` [Example 1.15, (E)-1-((3aR,8aS)-2-(1H-benzo[d][1,2,3]triazole-5-carbonyl)octahydropyrrolo[3,4-d]azepin-6(7H)-yl)-3-(3-fluoro-4-(trifluoromethoxy)phenyl)prop-2-en-1-one], with 1 nM; and `O=C(/C=C/c1ccc(OC(F)(F)F)cc1)N1CC[C@@H]2CN(C(=O)c3ccc4nonc4c3)C[C@@H]2CC1` [Example 1.17, (E)-1-[(3aS,8aR)-2-(benzo[c][1,2,5]oxadiazole-5-carbonyl)-octahydro-pyrrolo[3,4-d]azepin-6-yl]-3-(4-trifluoromethoxy-phenyl)-prop-2-en-1-one], with 651 nM.

The molecule `Cc1cc(OC(F)(F)F)ccc1/C=C/C(=O)N1CC[C@@H]2CN(C(=O)c3ccc4[nH]nnc4c3)C[C@@H]2CC1` [Example 1.18, (E)-1-((3aR,8aS)-2-(1H-benzo[d][1,2,3]triazole-5-carbonyl)octahydropyrrolo[3,4-d]azepin-6(7H)-yl)-3-(2-methyl-4-(trifluoromethoxy)phenyl)prop-2-en-1-one] showed an IC50 of 10 nM.

`COc1ccc(/C=C/C(=O)N2CC[C@@H]3CN(C(=O)c4ccc5[nH]nnc5c4)C[C@@H]3CC2)cc1F` [Example 1.19, (E)-1-((3aR,8aS)-2-(1H-benzo[d][1,2,3]triazole-5-carbonyl)octahydropyrrolo[3,4-d]azepin-6(7H)-yl)-3-(3-fluoro-4-methoxyphenyl)prop-2-en-1-one] yielded an IC50 of 12 nM. Under `O=C(/C=C/c1ccc(OC(F)(F)F)cc1)N1CC[C@@H]2CN(C(=O)[C@H]3CCc4[nH]nnc4C3)C[C@@H]2CC1` [Example 1.20, (E)-1-[(3aS,8aR)-2-((S)-4,5,6,7-tetrahydro-1H-benzotriazole-5-carbonyl)-octahydro-pyrrolo[3,4-d]azepin-6-yl]-3-(4-trifluoromethoxy-phenyl)-prop-2-en-1-one] stands 83 nM; under `O=C(/C=C/c1ccc(OC(F)(F)F)cc1)N1CC[C@@H]2CN(C(=O)[C@@H]3CCc4[nH]nnc4C3)C[C@@H]2CC1` [Example 1.21, (E)-1-[(3aS,8aR)-2-((R)-4,5,6,7-tetrahydro-1H-benzotriazole-5-carbonyl)-octahydro-pyrrolo[3,4-d]azepin-6-yl]-3-(4-trifluoromethoxy-phenyl)-prop-2-en-1-one], 5 nM. Under `CC(C)c1ccccc1/C=C/C(=O)N1CC[C@@H]2CN(C(=O)c3ccc4[nH]nnc4c3)C[C@@H]2CC1` [Example 1.22, (E)-1-[(3aS,8aR)-2-(1H-benzotriazole-5-carbonyl)-octahydro-pyrrolo[3,4-d]azepin-6-yl]-3-(2-isopropyl-phenyl)-prop-2-en-1-one] stands 9 nM; under `O=C(/C=C/c1cc(Cl)cc(C(F)(F)F)c1)N1CC[C@@H]2CN(C(=O)c3ccc4[nH]nnc4c3)C[C@@H]2CC1` [Example 1.27, (E)-1-((3aR,8aS)-2-(1H-benzo[d][1,2,3]triazole-5-carbonyl)octahydropyrrolo[3,4-d]azepin-6(7H)-yl)-3-(3-chloro-5-(trifluoromethyl)phenyl)prop-2-en-1-one], 8 nM; under `COc1ccc(/C=C/C(=O)N2CC[C@@H]3CN(C(=O)c4ccc5[nH]nnc5c4)C[C@@H]3CC2)c(C(F)(F)F)c1` [Example 1.28, (E)-1-((3aR,8aS)-2-(1H-benzo[d][1,2,3]triazole-5-carbonyl)octahydropyrrolo[3,4-d]azepin-6(7H)-yl)-3-(4-methoxy-2-(trifluoromethyl)phenyl)prop-2-en-1-one], 6 nM.

With `O=C(/C=C/c1ccccc1C1CC1)N1CC[C@@H]2CN(C(=O)c3ccc4[nH]nnc4c3)C[C@@H]2CC1` [Example 1.29, (E)-1-((3aR,8aS)-2-(1H-benzo[d][1,2,3]triazole-5-carbonyl)octahydropyrrolo[3,4-d]azepin-6(7H)-yl)-3-(2-cyclopropylphenyl)prop-2-en-1-one], the IC50 amounted to 8 nM. With `O=C(COc1ccccc1OC(F)(F)F)N1CC[C@@H]2CN(C(=O)c3ccc4[nH]nnc4c3)C[C@@H]2CC1` [Example 1.32, 1-[(3aS,8aR)-2-(1H-benzotriazole-5-carbonyl)-octahydro-pyrrolo[3,4-d]azepin-6-yl]-2-(2-trifluoromethoxy-phenoxy)-ethanone], the IC50 worked out at 40 nM. `Cc1cc(OCC(=O)N2CC[C@@H]3CN(C(=O)c4ccc5[nH]nnc5c4)C[C@@H]3CC2)c(C(C)C)cc1Cl` [Example 1.35, 1-[(3aS,8aR)-2-(1H-benzotriazole-5-carbonyl)-octahydro-pyrrolo[3,4-d]azepin-6-yl]-2-(4-chloro-2-isopropyl-5-methyl-phenoxy)-ethanone]: inhibition was half-maximal at 10 nM (IC50). Then `Cc1ccc(OCC(=O)N2CC[C@@H]3CN(C(=O)c4ccc5[nH]nnc5c4)C[C@@H]3CC2)c(C2CCN(C)C2)c1` (stereo partly drawn) [Example 1.36, 1-[(3aS,8aR)-2-(1H-benzotriazole-5-carbonyl)-octahydro-pyrrolo[3,4-d]azepin-6-yl]-2-[4-methyl-2-(1-methyl-pyrrolidin-3-yl)-phenoxy]-ethanone], with 7460 nM; and `O=C(COc1ccc(C(F)(F)F)cc1Cl)N1CC[C@@H]2CN(C(=O)c3ccc4[nH]nnc4c3)C[C@@H]2CC1` [Example 1.38, 1-((3aR,8aS)-2-(1H-benzo[d][1,2,3]triazole-5-carbonyl)octahydropyrrolo[3,4-d]azepin-6(7H)-yl)-2-(2-chloro-4-(trifluoromethyl)phenoxy)ethanone], with 10 nM.
